Values of other authors as cited in US20110105434A1, “2-AMINO PURINE DERIVATIVES AND THEIR USE AS ANTI-HERPETIC AGENTS” (priority 2007, published 2011).

Settings: oral maximum dose of 800 mg 5 times per day, most patients; cited from earlier work

Nc1nc2c(ncn2COCCO)c(=O)[nH]1 [acyclovir, 2-amino-9-1,-dihydro-9-[(2-hydroxyethyl)methyl]-6H-purin-6-one]
blood level: about 1.61 ng/mL
